From patent US9724537B2, “Abnormal electrical conduction blocking apparatus using photodynamic therapy (PDT)” (Keio University, priority 2006, dated 2017)

What was measured:
[1] = tested on: myoblast strain H9c2 (2-1) derived from the rat cardiac muscle; experiment: PDT cell lethality (CCK-8) in cell strain H9c2 (2-1); assay type: cell-based
Description: Using a skeletal muscle-like myoblast strain H9c2 (2-1) derived from the rat cardiac muscle, the relationship between the photosensitizer concentration and the cell lethality and the laser output required to induce cell death were investigated.
The above-mentioned cells were subcultured in a D-MEM+10% FBS medium, confluent cells were isolated, seeded on a 96-well microplate, and cultured at 37° C. under 5% CO2 for one day.
The cultured cells were adjusted to a density of 2.0×10^4 cells/well. As a photosensitizer, talaporfin sodium was dissolved in a medium at various concentrations and added at a concentration of 0.1 ml/well. After 1 to 2 h of loading, cells were irradiated with a laser beam. After completion of irradiation, the medium was replaced.
At this time, in a 0.5-cm^2 irradiation field (=area of the well) was irradiated with a continuous semiconductor laser beam (peak wavelength, 670.8 nm) under various conditions.
After irradiation with a laser beam, 0.01 ml of Cell Counting Kit-8 (Dojindo Laboratories, hereinafter referred to as CCK-8) was added to the medium in each well, the plate was incubated for 2 h, and then absorbance was measured to obtain the cell lethality. For calculation of the cell lethality, the property of a coloring reagent in CCK-8 of producing a color upon reduction with dehydrogenase in the cell was utilized. Six samples were examined.
The experimental conditions were as follows.
(i) Relationship between photosensitizer concentration and cell lethality
Agent concentrations: 10, 20, 30, 40 μg/ml
(§1) Laser intensity: 150 mW/cm^2
Total energy density: 3 J/cm^2
(ii) Relationship between total energy density of laser irradiation and cell lethality
Agent concentrations: 7.5, 15 μg/ml
Total energy density: 3, 6, 9, 12 J/cm^2
(iii) Relationship between laser intensity and cell lethality

[2] = tested on: rat cardiac muscle cells in primary culture; experiment: Pulsation and cell conditions of cardiac muscle cells in primary culture after PDT; assay type: cell-based
Description: Cardiac muscle cells in primary culture were purchased in suspension and seeded on a 96-well microplate. Cells were cultured at 37° C. under 5% CO2, and cells on days 3 and 7 of culture were used. The cardiac muscle cells in primary culture were pulsatile, and pulsations among cells were synchronizing.
Cardiac muscle cells in primary culture were adjusted to a density of 2.0×10^4 cells/well. As a photosensitizer talaporfin sodium was dissolved in a medium at various concentrations and added at a concentration of 0.1 ml/well. After 1 to 2 h of loading, laser irradiation was performed, and the medium was replaced after the completion of irradiation.
At this time, a 0.5-cm^2 irradiation field (=area of well) was irradiated with a continuous semiconductor laser beam (peak wavelength, 670.8 nm) under various conditions. […]
as §1
Total energy density: 1, 2, 3, 5 J/cm^2
In Table 1, 1d, 2d, and 3d refer to one, two, and three days after PDT, respectively. μg refers to the photosensitizer concentration in μg/ml. Numerical values in Table 1 are (number of samples in which pulsation restarted)/(total number of samples).

[3] = tested on: rat atrioventricular node; experiment: Atrioventricular block experiment by PDT in in vivo system; set-up: species or system Wistar rat
Description: Wistar rats (male, 8 weeks old) were anesthetized by inhalation of diethyl ether, four limbs and front teeth were fixed, a tube was inserted into the bronchial tube, and an artificial ventilator (Natsume Seisakusho Co., Ltd.) and a forane vaporizer anesthesia apparatus (Shinano Instrument, Co., Ltd.) were introduced into the body. Thoracotomy was performed between the right chest rib, and the experiment was performed while the heart was exposed.
A solution obtained by dissolving Laserphyrin in 5 ml of physiological saline was administered to venous blood from the right ventricular cavity. The photosensitizer dose (D) and the interval to photoradiation in each experiment were as follows.
Experiment 1: D=2 mg/kg, laser irradiation at interval of 5 and 60 min
Experiment 2: D=10 mg/kg, laser irradiation at interval of 2 and 30 min
A semiconductor laser beam (SONY, wavelength peak, 670 nm band) was transmitted using a quartz fiber with a laser intensity of 500 mW/cm^2 at the end. The end was attached to a portion in the vicinity of the base of the aorta, and photoradiation was performed towards the atrioventricular node (existing in a portion approx. 3 mm deep from the surface) in the right atrial inner wall for 10 min with the total dose of laser irradiation of 300 J/cm^2 (FIG. 30).
A needle electrode was inserted into four limbs of a rat, electrocardiogram leads I, II, and III were induced with an electrocardiograph (Nihon Kohden Corporation), and signals were recorded using a biosignal recording/analyzing apparatus and analyzed (FIG. 31). FIG. 31 is a schematic view showing an in vivo experimental system.
After completion of the experiment, the rat chest was closed and sutured. Then, a normal feed and water were given and allowed to survive, and anesthetized again at approx. 2 weeks so that electrocardiography should be performed.
The heart sample of Experiment 1 was isolated after electrocardiography at 2 weeks (the isolation method was the same as in Example 6), 4% paraformaldehyde was introduced from the coronary artery, and the perfusion-fixed sample was immersed in approx. 40 ml of the solution and left on a mix roller overnight. Then, a HE sample and an Azan stained specimen at a laser irradiation site were prepared and observed under a microscope.

[4] = Experiment 2: 10 mg/kg, 300 J/cm^2
[5] = Experiment 2: 10 mg/kg, interval 30 min, 300 J/cm^2

## C=Cc1c(C)c2cc3nc(c(CC(=O)N[C@@H](CC(=O)O)C(=O)O)c4[nH]c(cc5nc(cc1[nH]2)C(C)=C5CC)c(C)c4C(=O)O)[C@@H](CCC(=O)O)[C@@H]3C [talaporfin sodium, mono-L-aspartyl chlorine 6]
[1]; 7.5 μg/ml, 150 mW/cm^2, 3, 6, 9, 12 J/cm^2, FIG. 2
  cell death vs total energy density: almost no cell death was observed
[1]; 15 μg/ml, 150 mW/cm^2, 3, 6, 9, 12 J/cm^2, FIG. 2
  cell lethality vs total energy density: the greater the total energy density of laser irradiation was, the higher the cell lethality was
[1]; 40 μg/ml vs 30 μg/ml, 150 mW/cm^2, 3 J/cm^2
  cell lethality at 40 μg/ml: the result did not differ from that at 30 μg/ml
[1]; 7.5, 15 μg/ml, 3 J/cm^2, laser intensity 50 to 200 mW/cm^2, FIG. 3
  cell lethality vs laser intensity: the cell lethality did not change
[1]; up to 30 μg/ml, 150 mW/cm^2, 3 J/cm^2, FIG. 1
  cell lethality vs photosensitizer concentration: the higher the photosensitizer concentration was, the higher the cell lethality was
[2]; 5 μg (μg/ml), 1J, 1 d after PDT
  Restart of pulsation in cardiac muscle cells: (number of samples in which pulsation restarted)/(total number of samples): 4/8
[2]; 5 μg (μg/ml), 1J, 2 d after PDT
  Restart of pulsation in cardiac muscle cells: (number of samples in which pulsation restarted)/(total number of samples): 8/8
[2]; 5 μg (μg/ml), 1J, 3 d after PDT
  Restart of pulsation in cardiac muscle cells: (number of samples in which pulsation restarted)/(total number of samples): 8/8
[2]; 5 μg (μg/ml), 2J, 1 d after PDT
  Restart of pulsation in cardiac muscle cells: (number of samples in which pulsation restarted)/(total number of samples): 1/8
[2]; 5 μg (μg/ml), 2J, 2 d after PDT
  Restart of pulsation in cardiac muscle cells: (number of samples in which pulsation restarted)/(total number of samples): 8/8
[2]; 5 μg (μg/ml), 2J, 3 d after PDT
  Restart of pulsation in cardiac muscle cells: (number of samples in which pulsation restarted)/(total number of samples): 8/8
[2]; 5 μg (μg/ml), 3J, 1 d after PDT
  Restart of pulsation in cardiac muscle cells: (number of samples in which pulsation restarted)/(total number of samples): 0/8
[2]; 5 μg (μg/ml), 3J, 2 d after PDT
  Restart of pulsation in cardiac muscle cells: (number of samples in which pulsation restarted)/(total number of samples): 7/8
[2]; 5 μg (μg/ml), 3J, 3 d after PDT
  Restart of pulsation in cardiac muscle cells: (number of samples in which pulsation restarted)/(total number of samples): 8/8
[2]; 5 μg (μg/ml), 5J, 1 d after PDT
  Restart of pulsation in cardiac muscle cells: (number of samples in which pulsation restarted)/(total number of samples): 0/8
[2]; 5 μg (μg/ml), 5J, 2 d after PDT
  Restart of pulsation in cardiac muscle cells: (number of samples in which pulsation restarted)/(total number of samples): 8/8
[2]; 5 μg (μg/ml), 5J, 3 d after PDT
  Restart of pulsation in cardiac muscle cells: (number of samples in which pulsation restarted)/(total number of samples): 8/8
[2]; 10 μg (μg/ml), 1J, 1 d after PDT
  Restart of pulsation in cardiac muscle cells: (number of samples in which pulsation restarted)/(total number of samples): 0/8
[2]; 10 μg (μg/ml), 1J, 2 d after PDT
  Restart of pulsation in cardiac muscle cells: (number of samples in which pulsation restarted)/(total number of samples): 8/8
[2]; 10 μg (μg/ml), 1J, 3 d after PDT
  Restart of pulsation in cardiac muscle cells: (number of samples in which pulsation restarted)/(total number of samples): 8/8
[2]; 10 μg (μg/ml), 2J, 1 d after PDT
  Restart of pulsation in cardiac muscle cells: (number of samples in which pulsation restarted)/(total number of samples): 0/8
[2]; 10 μg (μg/ml), 2J, 2 d after PDT
  Restart of pulsation in cardiac muscle cells: (number of samples in which pulsation restarted)/(total number of samples): 7/8
[2]; 10 μg (μg/ml), 2J, 3 d after PDT
  Restart of pulsation in cardiac muscle cells: (number of samples in which pulsation restarted)/(total number of samples): 8/8
[2]; 10 μg (μg/ml), 3J, 1 d after PDT
  Restart of pulsation in cardiac muscle cells: (number of samples in which pulsation restarted)/(total number of samples): 0/8
[2]; 10 μg (μg/ml), 3J, 2 d after PDT
  Restart of pulsation in cardiac muscle cells: (number of samples in which pulsation restarted)/(total number of samples): 8/8
[2]; 10 μg (μg/ml), 3J, 3 d after PDT
  Restart of pulsation in cardiac muscle cells: (number of samples in which pulsation restarted)/(total number of samples): 8/8
[2]; 10 μg (μg/ml), 5J, 1 d after PDT
  Restart of pulsation in cardiac muscle cells: (number of samples in which pulsation restarted)/(total number of samples): 1/8
[2]; 10 μg (μg/ml), 5J, 2 d after PDT
  Restart of pulsation in cardiac muscle cells: (number of samples in which pulsation restarted)/(total number of samples): 8/8
[2]; 10 μg (μg/ml), 5J, 3 d after PDT
  Restart of pulsation in cardiac muscle cells: (number of samples in which pulsation restarted)/(total number of samples): 8/8
[2]; 10 μg/ml, 3 J/cm^2
  pulsation immediately after PDT: the pulsation stopped immediately after PDT
[2]; 10 μg/ml, 3 J/cm^2, FIG. 12
  cell conditions at one day after PDT: no damage was observed in the cell conditions
[2]; 10 μg/ml, 3 J/cm^2, see Table 1
  restart of pulsation and synchronization: the pulsation restarted, and synchronization was observed at about one to three days after experiment
[2]; 15 μg (μg/ml), 1J, 1 d after PDT
  Restart of pulsation in cardiac muscle cells: (number of samples in which pulsation restarted)/(total number of samples): 0/8
[2]; 15 μg (μg/ml), 1J, 2 d after PDT
  Restart of pulsation in cardiac muscle cells: (number of samples in which pulsation restarted)/(total number of samples): 8/8
[2]; 15 μg (μg/ml), 1J, 3 d after PDT
  Restart of pulsation in cardiac muscle cells: (number of samples in which pulsation restarted)/(total number of samples): 8/8
[2]; 15 μg (μg/ml), 2J, 1 d after PDT
  Restart of pulsation in cardiac muscle cells: (number of samples in which pulsation restarted)/(total number of samples): 0/8
[2]; 15 μg (μg/ml), 2J, 2 d after PDT
  Restart of pulsation in cardiac muscle cells: (number of samples in which pulsation restarted)/(total number of samples): 8/8
[2]; 15 μg (μg/ml), 2J, 3 d after PDT
  Restart of pulsation in cardiac muscle cells: (number of samples in which pulsation restarted)/(total number of samples): 8/8
[2]; 15 μg (μg/ml), 3J, 1 d after PDT
  Restart of pulsation in cardiac muscle cells: (number of samples in which pulsation restarted)/(total number of samples): 1/8
[2]; 15 μg (μg/ml), 3J, 2 d after PDT
  Restart of pulsation in cardiac muscle cells: (number of samples in which pulsation restarted)/(total number of samples): 8/8
[2]; 15 μg (μg/ml), 3J, 3 d after PDT
  Restart of pulsation in cardiac muscle cells: (number of samples in which pulsation restarted)/(total number of samples): 8/8
[2]; 15 μg (μg/ml), 5J, 1 d after PDT
  Restart of pulsation in cardiac muscle cells: (number of samples in which pulsation restarted)/(total number of samples): 0/8
[2]; 15 μg (μg/ml), 5J, 2 d after PDT
  Restart of pulsation in cardiac muscle cells: (number of samples in which pulsation restarted)/(total number of samples): 8/8
[2]; 15 μg (μg/ml), 5J, 3 d after PDT
  Restart of pulsation in cardiac muscle cells: (number of samples in which pulsation restarted)/(total number of samples): 8/8
[2]; 20 μg/ml, 3 J/cm^2
  restart of pulsation: The pulsation did not restart permanently
[2]; 20 μg/ml, 3 J/cm^2, FIG. 13
  cell conditions at one day after PDT: Associated cells were separated, and individual cells themselves shrank
[3]; Experiment 1: 2 mg/kg, 300 J/cm^2
  electrocardiogram after 2 weeks: the 2:1 atrioventricular block disappeared, and a normal atrioventricular conduction was confirmed
[3]; Experiment 1: 2 mg/kg, 300 J/cm^2, FIG. 36
  histology (Azan stain) at laser irradiation site at 2 weeks: a scar tissue (a damaged cellular tissue was replaced with the surrounding collagenic fibers) is observed
[3]; Experiment 1: 2 mg/kg, interval 5 min, 300 J/cm^2
  atrioventricular block (electrocardiogram): an atrioventricular block disappeared during the process of photoradiation
[3]; Experiment 1: 2 mg/kg, interval 60 min, 300 J/cm^2
  atrioventricular block (electrocardiogram) after photoradiation: 2:1 atrioventricular block
[3]; Experiment 1, laser irradiation dose 300 J/cm^2
  completeness of conduction block: the conduction block was incomplete
[3]; [4]
  electrocardiogram at 2 weeks: a finding of a complete atrioventricular block
  time the conduction block effect by PDT was maintained: 2 weeks
[3]; Experiment 2: 10 mg/kg, interval 2 min, 300 J/cm^2
  atrioventricular block (electrocardiogram): a 2:1 atrioventricular block occurred, but was resolved thereafter
[3]; [5]
  atrioventricular block (electrocardiogram): a 2:1 atrioventricular block and a complete atrioventricular block occurred from immediately after photoradiation
  electrocardiogram finding after completion of photoradiation: extrasystoles of the ventricle were observed
